Test results taken from US20230227406A1, “MODULATORS OF E3 LIGASES” (Rekindle Therapeutics Inc., priority 2020, published 2023).

How the values were obtained:
PD-L1 = assay: Western blot of PD-L1 in BT-20 cells; type: cell-based, human; details: indicated doses
Excerpt: (§1) The data presented here are consistent with the previous replicate in Hs578T cells, and the observation is preserved in another TNBC cell line, BT-20. COMPOUND 1 increases PD-L1 levels and the glycosylated PD-L1/non-glycosylated PD-L1 ratio. Methods are the same as the previous replicate, using the indicated doses.
The data presented here are consistent with the previous replicate in Hs578T cells. COMPOUND 6 reduces the PD-L1/vinculin loading control ratio in BT-20 cells. […] Methods are the same as the previous replicate, using the indicated doses.

WWP1 [1] = molecular target: T1, WWP1 (Homo sapiens, UniProt Q9H0M0); assay: WWP1 MALDI-MS ubiquitin depletion assay (auto-ubiquitination); type: biochemical; details: 30 min pre-incubation, 90 minutes at 37° C.
T1 construct: purchased Ubiquigent 63-0034-025/30033/D
Description: Modulators designed in these ways were tested for HECT domain E3 ligase activity in a MALDI TOF assay of auto-ubiquitination (De Cesare et al, Cell Chem. Biol, 2018, 25, 1117)
UBE1 (E-305 Boston Biochem), UBE2D1 (E2-616 Boston Biochem), WWP1 (Ubiquigent #63-0034-025/30033/D), ubiquitin variants (Boston Biochem; ubiquitin: U-100H; WT-His6-Ub: U-530; K27R-His6-Ub:UM-HK27R; K27O-His6-Ub: UM-HK27O), alpha-cyano-4-hydroxycinnamic acid (CHCA), ATP, trifluoroacetic acid (Millipore Sigma, St. Louis, Mo.), 384-well round-bottom polypropylene microplates (781280, Greiner, Stonehouse, UK), 384-well Anchorchip MALDI targets and Peptide Calibration Standard II (Bruker Daltonics, Billerica, Mass.).
Protocol: The WWP1 ubiquitin depletion assay consists of recombinant UBE1 (5 nM), UBE2D1 conjugating enzyme (60 nM) and WWP1 ligase (50 nM) in a 10 mM HEPES pH 8.0 containing 0.1 mg/mL BSA, 10 mM MgCl2, 1 mM ATP and 1500 nM ubiquitin. Screening was performed by dispensing 3.5 μL of an enzyme solution containing UBE1 (10 nM), UBE2D1 (120 nM), WWP1 (100 nM), ubiquitin ([…]) to a 384-well round bottom polypropylene plates followed by incubation at 37° C. for 30 min. Reactions were initiated by the addition of 3.5 μL of an ATP solution (2000 nM) then incubated at 37° C. for 90 minutes before being quenched by the addition of 5 μL of a 50 mM EDTA solution containing 750 nM of a ubiquitin labelled with a histidine expression tag (m/z=9460.0 Da).
For detection of ubiquitin and the ubiquitin-6His internal standards, 50 nL of quenched reaction was dispensed onto a 384-well Anchorchip MALDI target plate (Bruker) pre-coated with a uniform layer of CHCA crystals immediately followed by 200 nL of a 3 mg/mL CHCA matrix solution (6 mg of CHCA dissolved in 0.7 mL of 100% ethanol and 1.3 mL of 0.31% aqueous TFA) using a TTP Labtech Mosquito liquid handler. Spectra for all reactions were acquired on a Bruker AutoFlex II in positive linear TOF mode from 1000 laser shots with ion suppression below 4000 Da. Spectra were analyzed for response using a centroid peak-fitting algorithm to quantify ubiquitin (m/z=8564.0 Da) and ubiquitin-6His (m/z=9460.0 Da) followed taking the ratio of intensities of ubiquitin and the ubiquitin-6His internal standard.
For compound screening, 140 nL of diluted compound in 100% DMSO was added to the WWP1 enzyme solution and pre-incubated for 30 minutes prior to reaction initiation.

[2] = test system: phosphorylated AKT and phosphorylated Ribosomal Protein S6; assay: Western blot of AKT and S6 phosphorylation in BT-20 cells; type: cell-based, human; details: indicated doses
Excerpt: as §1, with “reduces the phospho-AKT/vinculin loading control” for “increases PD-L1 levels”, “phospho-S6/total S6 ratios.” for “the glycosylated PD-L1/non-glycosylated PD-L1 ratio.”
The data presented here are consistent with the previous replicate in Hs578T cells. COMPOUND 6 reduces the phospho-AKT/vinculin loading control and phospho-S6/total S6 ratios in BT-20 cells. Methods are the same as the previous replicate, using the indicated doses.

WWP1 [3] = molecular target: T1, WWP1; assay: In vitro WWP1-dependent ubiquitination of PTEN, western blot and LC-MS/MS; type: biochemical; details: 2 hours, indicated doses of inhibitor
Description: In vitro ubiquitination reactions were carried out for 2 hours using the indicated doses of inhibitor. Increasing doses of inhibitor block PTEN substrate ubiquitination, which correlates with remaining free ubiquitin. The “0” concentration is DMSO only (0.5%, same as was used for compound doses). No E1 and No E3 negative controls are present (only free ubiquitin present). Analysis occurred by western blot using an anti-ubiquitin antibody. A fraction of these samples was digested with Trypsin/LysC and labeled with TMT quantification reagents prior to LC-MS/MS analysis.
In vitro ubiquitination reactions were carried out for 2 hours using the indicated doses of inhibitor. Increasing doses of inhibitor block PTEN substrate ubiquitination, which correlates with remaining free ubiquitin. The “0” concentration is DMSO only (0.5%, same as was used for compound doses). No E1 and No E3 negative controls are present (only free ubiquitin present). Analysis occurred by western blot using an anti-ubiquitin antibody.

T1 sequence (Q9H0M0 whole entry): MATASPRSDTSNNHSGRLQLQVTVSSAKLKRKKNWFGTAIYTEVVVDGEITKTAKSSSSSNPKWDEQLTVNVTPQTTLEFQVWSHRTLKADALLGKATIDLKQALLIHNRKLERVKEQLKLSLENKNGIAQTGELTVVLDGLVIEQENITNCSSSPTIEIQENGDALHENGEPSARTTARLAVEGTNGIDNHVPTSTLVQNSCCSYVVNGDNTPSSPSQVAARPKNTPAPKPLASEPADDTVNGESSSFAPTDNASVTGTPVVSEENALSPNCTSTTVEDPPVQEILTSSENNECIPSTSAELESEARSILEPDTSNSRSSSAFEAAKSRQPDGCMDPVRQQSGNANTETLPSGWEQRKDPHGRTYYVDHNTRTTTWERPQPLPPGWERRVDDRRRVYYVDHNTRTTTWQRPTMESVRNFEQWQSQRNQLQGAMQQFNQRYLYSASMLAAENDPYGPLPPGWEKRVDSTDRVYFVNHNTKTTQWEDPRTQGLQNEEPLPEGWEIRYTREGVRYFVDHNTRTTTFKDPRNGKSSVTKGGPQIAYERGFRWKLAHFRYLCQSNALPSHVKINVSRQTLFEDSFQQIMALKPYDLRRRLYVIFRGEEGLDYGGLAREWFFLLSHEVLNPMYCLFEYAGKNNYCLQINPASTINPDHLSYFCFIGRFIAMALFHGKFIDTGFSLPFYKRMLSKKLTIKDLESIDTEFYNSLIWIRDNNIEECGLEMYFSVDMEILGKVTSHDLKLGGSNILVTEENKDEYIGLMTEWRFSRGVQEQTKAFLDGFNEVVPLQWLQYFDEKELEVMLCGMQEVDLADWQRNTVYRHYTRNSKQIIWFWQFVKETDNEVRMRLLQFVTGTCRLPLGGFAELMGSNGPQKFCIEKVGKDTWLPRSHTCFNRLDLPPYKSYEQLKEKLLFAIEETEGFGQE

| IC50 (WWP1 [1]) [µM] | Structure (SMILES) | PD-L1 glycosylation (glycosylated/non-glycosylated PD-L1 ratio) (PD-L1) | PD-L1 levels (PD-L1/vinculin loading control ratio) (PD-L1) | phospho-AKT/vinculin loading control ratio [2] | phospho-S6/total S6 ratio [2] | WWP1 dependent ubiquitination of PTEN (western blot, anti-ubiquitin) (WWP1 [3]) |
| --- | --- | --- | --- | --- | --- | --- |
| 32 | C#CCNC(=O)c1ccc2c(Cc3c[nH]c4ccccc34)c[nH]c2c1 [Compound 6, 3-((1H-indol-3-yl)methyl)-N-(prop-2-yn-1-yl)-1H-indole-6-carboxamide] | probably reduces | reduces | reduces | reduces |  |
| 5 | C#Cc1ccc2c(C=O)cn(-c3ccccc3)c2c1 [Compound 1, 6-ethynyl-1-phenyl-1H-indole-3-carbaldehyde] | increases | increases | reduces | reduces |  |
| 15 | C#CCN(CCO)C(=O)c1ccc2c(Cc3c[nH]c4ccccc34)c[nH]c2c1 [Compound 7, 3-((1H-indol-3-yl)methyl)-N-(2-hydroxyethyl)-N-(prop-2-yn-1-yl)-1H-indole-6-carboxamide] |  |  |  |  | Inhibits WWP1-Dependent Ubiquitination of PTEN, in a Dose-Dependent Manner |
